Measurements published in patent publication US8187831B2, “Determination of ions using ion-sensitive enzymes” (General Atomics, priority 2003, dated 2012).
Where two headings read alike, the source gives them in different places.

Tests used:
[1] = target: T1, chimeric 3′(2′),5′-bisphosphate nucleotidase (Saccharomyces cerevisiae, UniProt P32179); type: biochemical, Saccharomyces cerevisaie
T1 construct: His6 (C)
Excerpt: (§1) Assay Principle. […] Through enzymatic coupling, the phosphatase substrate, adenosine 3′,5′-bisphosphate (PAP) was converted to hypoxanthine by a series of enzymatic reactions to generate uric acid and hydrogen peroxide (H2O2). H2O2 generated reacts with N-Ethyl-N-(2-hydroxy-3-sulfopropyl)-3-m-toluidine (EHSPT) and 4-aminoantipyrine (4-AA) in the presence of peroxidase (POD) to form a quinone dye which had maximal absorbance at 556 nm. The rate of the quinine dye formation was inversely proportion to the concentration of sodium in serum samples. The enzymatic coupling reaction scheme is shown below in Table 3:
Key Assay Characteristics. The sodium enzymatic assay was a two reagent (R1 and R2) based kinetic assay system. The results were obtained in 10 min by measuring absorbance at 550 nm. No off line pretreatment was needed.
Assay Procedure. • 1. Reconstituted R1 and R2 reagents as described in Reagent Preparation section and kept the reconstituted R1 and R2 reagents on ice bath. • 2. In a cuvette, mixed 180 μL of Reagent R1 and 20 μL of serum sample and incubated at 37° C. for 1 minute and then added 85 μL of Reagent 2. • 3. Read absorbance (550 nm) at 3 min (2 min after addition of Reagent 2) as A1. Incubated for a further 7 min and read the absorbance at 10 min as A2. • 4. Calculated ΔA=A2−A1
Calibration. This assay was calibrated daily using the enclosed low and high sodium standards. A calibration curve was constructed by plotting the ΔA values of the standards against the corresponding sodium concentrations. The sodium concentration of the sample was read from the calibration curve.

[2] = target: T1, chimeric 3′(2′),5′-bisphosphate nucleotidase; test: biochemical; design: species or system Saccharomyces cerevisaie
Excerpt: as §1, with “(H2O2). The” for “(H2O2).”, “reacted” for “reacts”, “lithium” for “sodium”, “6.” for “3:”
Key Assay Characteristics. The lithium enzymatic assay was a two reagent (R1 and R2) based kinetic assay system. The results were obtained in 10 min by measuring absorbance at 550 nm. No off line pretreatment was needed.
Assay Procedure. • 1. Reconstituted R1 and R2 reagents as described in Reagent Preparation section and kept the reconstituted R1 and R2 reagents on ice bath. • 2. In a cuvette, mixed 180 μL of Reagent R1 and 5 μL of serum sample and incubated at 37° C. for 1 minute and then added 85 μL of Reagent 2. • 3. Read absorbance (550 nm) at 6 minutes as A1. Incubated for 3 more minutes and read the absorbance at 9 minute as A2. • 4. Calculated ΔA=A2−A1
Calibration and Quality Control. The assay was calibrated daily using the enclosed low and high lithium standards. The calibration curve was constructed by plotting the ΔA values of the standards against the corresponding lithium concentrations. The lithium concentration of the sample was read from the calibration curve. The assay should be calibrated daily.

T1 sequence (P32179 other isoform, or with tags, fused parts or gaps): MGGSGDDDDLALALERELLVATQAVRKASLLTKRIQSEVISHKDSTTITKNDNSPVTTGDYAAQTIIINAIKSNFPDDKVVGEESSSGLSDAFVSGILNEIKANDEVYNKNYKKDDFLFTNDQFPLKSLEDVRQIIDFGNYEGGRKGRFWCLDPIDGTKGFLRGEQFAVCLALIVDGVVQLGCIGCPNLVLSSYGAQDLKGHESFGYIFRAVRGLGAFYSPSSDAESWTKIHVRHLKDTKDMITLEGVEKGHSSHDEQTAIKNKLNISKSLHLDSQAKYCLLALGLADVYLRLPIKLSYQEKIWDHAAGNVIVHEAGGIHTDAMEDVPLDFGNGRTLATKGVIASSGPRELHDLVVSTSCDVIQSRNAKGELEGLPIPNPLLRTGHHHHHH

In the case of `[Cl][Fe]([Cl])[Cl]` [FeCl3], the “Interference with sodium assay” value ([1]; substance at 0.25 mM) is reported as “not interfered”.

In the case of `[Fe+3]` [Fe^3+], the “Interference with lithium assay” value ([2]; substance at 0.25 mM) is reported as “not interfered”.

For `[Ca+2].[Cl-].[Cl-]` [CaCl2], the “Interference with sodium assay” value ([1]; substance at 5 mM) was “not interfered”.

`[Li]` [lithium, reference compound] was tested, and the IC50 ([2]; read-out: IC50 (nucleotidase activity sensitive to lithium concentration)) was 0.1 mM.

`[Zn+2]` [Zn^2+] was tested, and the “Interference with lithium assay” value ([2]; substance at 0.25 mM) was “not interfered”.

With `[Cl][Cu][Cl]` [CuCl2] the “Interference with sodium assay” value ([1]; substance at 0.25 mM) was “not interfered”.

For `[Na+]` [sodium], the IC50 ([1]; read-out: IC50 (nucleotidase activity sensitive to sodium concentration)) was 20 mM and the “Interference with lithium assay” value ([2]; substance at 200 mM) was “not interfered”.

In the case of `[Ca+2]` [Ca^2+], the “Interference with lithium assay” value ([2]; substance at 4.0 mM) is reported as “not interfered”.

With `[Cl-].[K+]` [KCl] the “Interference with sodium assay” value ([1]; substance at 10 mM) was “not interfered”.

triglyceride was tested, and the “Interference with sodium assay” value ([1]; substance at 250 mg/dl) was “not interfered”.

`Cl.N` [NH4Cl] was tested, and the “Interference with sodium assay” value [1] was “not interfered”.

With `[K+]` [K^+] the “Interference with lithium assay” value [2] was “not interfered”.

`[Mg+2]` [Mg^2+] was tested, and the “Interference with lithium assay” value ([2]; substance at 2.0 mM) was “not interfered”.

`O=C1O[C@H]([C@@H](O)CO)C(O)=C1O` [ascorbic acid] was tested, and the “Interference with sodium assay” value ([1]; substance at 5 mM) was “not interfered” and the “Interference with lithium assay” value ([2]; substance at 5.0 mM) was “not interfered”.

With `[Cl-].[Cl-].[Zn+2]` [ZnCl2] the “Interference with sodium assay” value ([1]; substance at 0.25 mM) was “not interfered”.

With `[Cu+2]` [Cu^2+] the “Interference with lithium assay” value ([2]; substance at 0.25 mM) was “not interfered”.

With `N` [NH4^+] the “Interference with lithium assay” value ([2]; substance at 0.5 mM) was “not interfered”.

KPi was tested, and the “Interference with sodium assay” value ([1]; substance at 1.5 mM) was “not interfered”.

In the case of `[Cl-].[Na+]` [NaCl], the “Interference with sodium assay” value [1] is reported as “not interfered”.
